Data published in patent publication US10703757B2, “Compounds and methods for CDK8 modulation and indications therefor” (Plexxikon Inc., priority 2016, dated 2020).
pIC50: −log10 of the molar value.

Key:
[1] = test system: CDK8 (phosphorylation of STAT1 at serine 727 in A549 cells); test: Cell based Phospho-STAT1 assay (IFNγ-stimulated A549 cells, AlphaLISA); details: Homo sapiens, A549, A549 cells, phospho-STAT1 after IFNγ stimulation
In short: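 A549 cells given serial compound dilutions for 1 h at 37 °C, then stimulated with IFNγ at 10 ng/mL final for 30 min. Lysate STAT1 Ser727 phosphorylation measured by AlphaLISA; % inhibition vs stimulated/unstimulated DMSO controls, IC50 by nonlinear regression.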

[2] = test system: CDK8 (TCF/LEF luciferase reporter in HCT116 cells); test: Cell based TCF/LEF reporter assay (HCT116+TCF/LEF luciferase); details: Homo sapiens, HCT-116, 24 h
In short: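 HCT116 cells stably carrying a TCF/LEF-luciferase reporter (endogenous mutant β-catenin), seeded overnight, then exposed to serial compound dilutions for 24 h at 37 °C. Luminescence normalized to CellTiter-Fluor viability signal. % inhibition relative to DMSO and 10 uM CCT251545 controls, with IC50 from nonlinear regression.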

pIC50 [1] | pIC50 [2] | Compound
6.00 to 7.00 | 6.00 to 7.00 | O=C(C1CCC(c2cccn3ncc(-c4ccc(-c5cnn(C(F)F)c5)cc4)c23)CC1)N1CCC1 (centres unmarked) [Compound P-0315, azetidin-1-yl(4-(3-(4-(1-(difluoromethyl)-1H-pyrazol-4-yl)phenyl)pyrazolo[1,5-a]pyridin-4-yl)cyclohexyl)methanone]
7.00 to 10.00 | 7.00 to 10.00 | N#CC1CC=C(c2nccn3ncc(-c4ccc(-c5cnn(CC6CC6)c5)cc4)c23)CC1 (centres unmarked) [Compound P-0034, 4-(3-(4-(1-(cyclopropylmethyl)-1H-pyrazol-4-yl)phenyl)pyrazolo[1,5-a]pyrazin-4-yl)cyclohex-3-ene-1-carbonitrile]
7.00 to 10.00 | 7.00 to 10.00 | COc1ccc(-c2cnn3ccnc(C4CCC(C#N)CC4)c23)cc1C (centres unmarked) [Compound P-0457, (1s,4s)-4-(3-(4-methoxy-3-methylphenyl)pyrazolo[1,5-a]pyrazin-4-yl)cyclohexane-1-carbonitrile]
7.00 to 10.00 | 7.00 to 10.00 | Cc1cc(-c2cnn3ccnc(C4=CCC(C#N)CC4)c23)ccc1-c1cnn(CC(C)(C)O)c1 (centres unmarked) [Compound P-0024, 4-(3-(4-(1-(2-hydroxy-2-methylpropyl)-1H-pyrazol-4-yl)-3 methylphenyl)pyrazolo[1,5-a]pyrazin-4-yl)cyclohex-3-ene-1-carbonitrile]
7.00 to 10.00 | 7.00 to 10.00 | N#CC1CCN(c2cccn3ncc(-c4ccc(OCC(O)CN5CCOCC5)cc4)c23)CC1 (centres unmarked) [Compound P-0262, 1-(3-(4-(2-hydroxy-3-morpholino-propoxy)phenyl)pyrazolo[1,5-a]pyridin-4-yl)piperidine-4-carbonitrile]
7.00 to 10.00 | 7.00 to 10.00 | N#CC1CCN(c2c(-c3ccc(-c4cnn(CC(F)(F)F)c4)cc3)cnc3[nH]ccc23)CC1 [Compound P-0174, 1-(5-(4-(1-(2,2,2-trifluoroethyl)-1H-pyrazol-4-yl)phenyl)-1H-pyrrolo[2,3-b]pyridin-4-yl)piperidine-4-carbonitrile]
7.00 to 10.00 | 7.00 to 10.00 | Cc1ccn2ncc(-c3ccc(-c4cnn(C)c4)cc3)c2c1C1=CCC(C#N)CC1 (centres unmarked) [Compound P-0250, 4-[5-methyl-3-[4-(1-methylpyrazol-4-yl)phenyl]pyrazolo[1,5-a]pyridin-4-yl]cyclohex-3-ene-1-carbonitrile]
7.00 to 10.00 | 7.00 to 10.00 | CS(=O)(=O)CCn1cc(-c2ccc(-c3cnn4ccnc(C5=CCC(C#N)CC5)c34)cc2)cn1 (centres unmarked) [Compound P-0033, 4-(3-(4-(1-(2-(methylsulfonyl)ethyl)-1H-pyrazol-4-yl)phenyl)pyrazolo[1,5-a]pyrazin-4-yl)cyclohex-3-ene-1-carbonitrile]
7.00 to 10.00 | 5.00 to 6.00 | Cn1cc(-c2ccc(-c3cnn4cccc(N5CCC(F)(C#N)CC5)c34)cc2)cn1 [Compound P-0293, 4-fluoro-1-(3-(4-(1-methyl-1H-pyrazol-4-yl)phenyl)pyrazolo[1,5-a]pyridin-4-yl)piperidine-4-carbonitrile]
7.00 to 10.00 | 7.00 to 10.00 | N#CC1CCN(c2cccn3ncc(-c4ccc(OCC(O)CN5CCCCC5)cc4)c23)CC1 (centres unmarked) [Compound P-0263, 1-(3-(4-(2-hydroxy-3-(piperidin-1-yl)propoxy)phenyl)pyrazolo[1,5-a]pyridin-4-yl)piperidine-4-carbonitrile]
7.00 to 10.00 | 7.00 to 10.00 | CC(C)(C#Cc1cccn2ncc(-c3ccc(-c4cnn(CC(F)F)c4)cc3)c12)C(N)=O [Compound P-0467, 4-(3-(4-(1-(2,2-difluoroethyl)-1H-pyrazol-4-yl)phenyl)pyrazolo[1,5-a]pyridin-4-yl)-2,2-dimethylbut-3-ynamide]
7.00 to 10.00 | 7.00 to 10.00 | N#CC1CCC(c2cccn3ncc(-c4ccc(OCCCN5CCCCC5)cc4)c23)CC1 (centres unmarked) [Compound P-0142, 4-(3-(4-(3-(piperidin-1-yl)propoxy)phenyl)pyrazolo[1,5-a]pyridin-4-yl)cyclohexane-1-carbonitrile]
6.00 to 7.00 | 6.00 to 7.00 | N#CC1CC=C(c2nccn3ncc(-c4ccc(Cl)c(F)c4)c23)CC1 (centres unmarked) [Compound P-0083, 4-(3-(4-chloro-3-fluorophenyl)pyrazolo[1,5-a]pyrazin-4-yl)cyclohex-3-ene-1-carbonitrile]
5.00 to 6.00 | 5.00 to 6.00 | CC(=O)N1CCC(Oc2cccc3ncc(-c4ccc(-c5cnn(C(F)F)c5)cc4)n23)CC1 [Compound P-0304, 1-[4-[3-[4-[1-(difluoromethyl)pyrazol-4-yl]phenyl]imidazo[1,2-a]pyridin-5-yl]oxy-1-piperidyl]ethanone]
7.00 to 10.00 | 7.00 to 10.00 | Cc1n[nH]c2cc(-c3cnn4ccnc(C5=CCC(C#N)CC5)c34)ccc12 (centres unmarked) [Compound P-0071, 4-(3-(3-methyl-1H-indazol-6-yl)pyrazolo[1,5-a]pyrazin-4-yl)cyclohex-3-ene-1-carbonitrile]
7.00 to 10.00 | 7.00 to 10.00 | COc1ccc(-c2cnn3cccc(C4CCC(C#N)CC4)c23)cc1 (centres unmarked) [Compound P-0137, 4-(3-(4-methoxyphenyl)pyrazolo[1,5-a]pyridin-4-yl)cyclohexane-1-carbonitrile]

pIC50 [1] | pIC50 [2] | Compound
7.00 to 10.00 | 6.00 to 7.00 | Cc1nn(C)cc1-c1ccc(-c2cnn3cccc(C#CC(C)(C)O)c23)cc1 [Compound P-0311, 4-(3-(4-(1,3-dimethyl-1H-pyrazol-4-yl)phenyl)pyrazolo[1,5-a]pyridin-4-yl)-2-methylbut-3-yn-2-ol]
7.00 to 10.00 | 7.00 to 10.00 | CC(C)(O)Cn1cc(-c2ccc(-c3cnc4[nH]ccc4c3C3=CCC(C#N)CC3)cc2)cn1 (centres unmarked) [Compound P-0332, 4-(5-(4-(1-(2-hydroxy-2-methylpropyl)-1H-pyrazol-4-yl)phenyl)-1H-pyrrolo[2,3-b]pyridin-4-yl)cyclohex-3-ene-1-carbonitrile]
7.00 to 10.00 | 7.00 to 10.00 | CC(C)(O)Cn1ncc2cc(-c3cnn4ccnc(C5CCC(C#N)CC5)c34)ccc21 (centres unmarked) [Compound P-0062, (1s,4s)-4-(3-(1-(2-hydroxy-2-methylpropyl)-1H-indazol-5-yl)pyrazolo[1,5-a]pyrazin-4-yl)cyclohexane-1-carbonitrile]
7.00 to 10.00 | 7.00 to 10.00 | NC(=O)C1CC=C(c2nccn3ncc(-c4ccc(OCCN5CCOCC5)cc4)c23)CC1 (centres unmarked) [Compound P-0129, 4-(3-(4-(2-morpholino-ethoxy)phenyl)pyrazolo[1,5-a]pyrazin-4-yl)cyclohex-3-ene-1-carboxamide]
7.00 to 10.00 | 7.00 to 10.00 | Cn1ncc2cc(-c3cnn4ccnc(C5=CCC(C(N)=O)CC5)c34)ccc21 (centres unmarked) [Compound P-0136, 4-(3-(1-methyl-1H-indazol-5-yl)pyrazolo[1,5-a]pyrazin-4-yl)cyclohex-3-ene-1-carboxamide]
6.00 to 7.00 | 6.00 to 7.00 | Cn1cc(C#Cc2cnc3cccc(N4CCC5(CCNC5=O)CC4)n23)cn1 [Compound P-0278, 8-(3-((1-methyl-1H-pyrazol-4-yl)ethynyl)imidazo[1,2-a]pyridin-5-yl)-2,8-diazaspiro[4.5]decan-1-one]
6.00 to 7.00 | 6.00 to 7.00 | Cn1cc(-c2ccc(-c3cnn4cccc(C5=CCC(C(=O)N6CCC6)CC5)c34)cc2)cn1 (centres unmarked) [Compound P-0333, azetidin-1-yl-[4-[3-[4-(1-methylpyrazol-4-yl)phenyl]pyrazolo[1,5-a]pyridin-4-yl]cyclohex-3-en-1-yl]methanone]
7.00 to 10.00 | 7.00 to 10.00 | Cn1ccc(-c2ccc(-c3cnn4cccc(C#CC(C)(C)O)c34)cc2)n1 [Compound P-0226, 2-methyl-4-(3-(4-(1-methyl-1H-pyrazol-3-yl)phenyl)pyrazolo[1,5-a]pyridin-4-yl)but-3-yn-2-ol]
7.00 to 10.00 | 7.00 to 10.00 | N#CC1CCC(c2cccn3ncc(-c4ccc(OCC5CCCCO5)cc4)c23)CC1 (centres unmarked) [Compound P-0144, 4-(3-(4-((tetrahydro-2H-pyran-2-yl)methoxy)phenyl)pyrazolo[1,5-a]pyridin-4-yl)cyclohexane-1-carbonitrile]
7.00 to 10.00 | 7.00 to 10.00 | CC(C)(C#Cc1cccn2ncc(-c3ccc(-c4cnn(CC5(C#N)CC5)c4)cc3)c12)C(N)=O [Compound P-0052, 4-(3-(4-(1-((1-cyanocyclopropyl)methyl)-1H-pyrazol-4-yl)phenyl)pyrazolo[1,5-a]pyridin-4-yl)-2,2-dimethylbut-3-ynamide]
6.00 to 7.00 | 6.00 to 7.00 | Cc1ccc2cc(-c3cnn4cccc(C#CC(C)(C)O)c34)ccc2n1 [Compound P-0281, 2-methyl-4-(3-(2-methylquinolin-6-yl)pyrazolo[1,5-a]pyridin-4-yl)but-3-yn-2-ol]
6.00 to 7.00 | 6.00 to 7.00 | N#CC1CC=C(c2nccn3ncc(-c4ccnc(NC5CCCC5)c4)c23)CC1 (centres unmarked) [Compound P-0074]
7.00 to 10.00 | 7.00 to 10.00 | N#CC1CCN(c2c(-c3ccc(OCCCN4CCOCC4)cc3)cnc3[nH]ccc23)CC1 [Compound P-0327, 1-(5-(4-(3-morpholinopropoxy)phenyl)-1H-pyrrolo[2,3-b]pyridin-4-yl)piperidine-4-carbonitrile]
7.00 to 10.00 | 7.00 to 10.00 | N#CC1CC=C(c2cccn3ncc(-c4ccc(OCC(O)CN5CCOCC5)cc4)c23)CC1 (centres unmarked) [Compound P-0178, 4-(3-(4-(2-hydroxy-3-morpholinopropoxy)phenyl)pyrazolo[1,5-a]pyridin-4-yl)cyclohex-3-ene-1-carbonitrile]
7.00 to 10.00 | 7.00 to 10.00 | N#CC1CC=C(c2nccn3ncc(-c4ccc(OCC5CCCCO5)cc4)c23)CC1 (centres unmarked) [Compound P-0079, 4-(3-(4-((tetrahydro-2H-pyran-2-yl)methoxy)phenyl)pyrazolo[1,5-a]pyrazin-4-yl)cyclohex-3-ene-1-carbonitrile]
